In PMC12376232 (Journal of the Colleges of Medicine of South Africa, 2023):

What was measured:
rodents = conditions: in vivo
benign thyroid diseases = assay: I-131 therapy of benign thyroid diseases, retrospective analysis; assay type: in vivo; conditions: 127 patients
Method: A retrospective analysis was carried out for patients with benign thyroid conditions who underwent single or double I-131 therapy for benign thyroid disease at our department between January 2009 and December 2021. The thyroid function status of the patients was also documented prior to discharge.

CCCC(C)C1(CC)C(=O)NC(=O)NC1=O (stereo not drawn) [Pentobarbital, pentobarbital]
effect on glucose metabolism (rodents): does not alter the blood glucose metabolism | safety margin for rodent anaesthesia (rodents): lower safety margin

CC(C)c1cccc(C(C)C)c1O [Propofol, propofol]
effect on glucose metabolism (rodents): decreased cerebral glucose metabolism

[131IH] [RAI]
patients who required retreatment as they remained hyperthyroid (benign thyroid diseases; after single RAI therapy, n = 33): 26% | patients who responded to the single RAI therapy (euthyroid or hypothyroid) (benign thyroid diseases; empirical dose 10 mCi to 40 mCi, n = 94): Seventy-four per cent | patients euthyroid on discharge (benign thyroid diseases; single or double I-131 therapy, n = 40): 31% | patients hypothyroid on discharge (benign thyroid diseases; single or double I-131 therapy, n = 83): 66%

FC(F)OC(Cl)C(F)(F)F (stereo not drawn) [isoflurane]
effect on glucose metabolism (rodents): induced hypoglycaemia

FCOC(C(F)(F)F)C(F)(F)F [sevoflurane]
effect on glucose metabolism (rodents): induced hypoglycaemia
